The values that follow come from patent publication EP4806892A1, “CEREBLON E3 UBIQUITIN LIGASE INHIBITOR” (GAN & LEE PHARMACEUTICALS CO., LTD., priority 2023, dated 2025).

What all share (type): cell-based
For one experiment, the target named is T1, AR protein (Homo sapiens, UniProt P10275, T878A).
T1 construct: AR-positive human prostate cancer cells (LNCaP, cell source: ATCC); host or cells: LNCaP
Description: AR protein degradation in LNCaP cells (Western blot). To be noted: 8 hours. On the procedure:
AR-positive human prostate cancer cells (LNCaP, cell source: ATCC) were cultured in RPMI 1640 (ATCC catalog number 30-2001) containing 10% FBS (Hyclone catalog number SH30406.05), and the cells were inoculated into a six-well microplate (Thermo catalog number 140675) at a density of 1.5 × 10^5 cells/well. After the cells were cultured overnight in a carbon dioxide incubator (ESCO), the prepared compound of the present invention and the positive control sample ARV-766 (source: energy chemical) solution of different concentrations were added at a volume of 1 µL/well to make the final concentrations of the compound and the positive control sample reach 100nM and 10nM, respectively. At the same time, the corresponding solvent control was set and cultured for 8 hours. After 8 hours of culture, the culture medium was removed, the cells were washed with PBS, and RIPA lysis buffer containing 1% Protease Inhibitor Cocktail was added. After lysis and centrifugation, the total protein extract was obtained, and the protein concentration in the extract was detected by BCA method. Protein electrophoresis was performed using SDS-PAGE, and then the protein was transferred to a PVDF (Millipore Sigma catalog number PSRP010R5) membrane at a constant voltage of 100V for 60 minutes. The PVDF membrane was placed in a 5% milk powder 1×TBST solution and blocked at room temperature for 1 hour. The primary antibody solution (Anti-Androgen receptor, Cell Signaling Technology catalog number: 5153S; 1:2000 dilution) was prepared and incubated at 4°C overnight. The primary antibody solution was discarded and the PVDF membrane was washed with 1×TBST for 5 minutes each time, three times. The secondary antibody solution (Thermo, catalog number SA5-35571; 1:7500 dilution) was prepared and incubated at room temperature for 1 hour. The secondary antibody solution was discarded and the PVDF membrane was washed with 1×TBST for 5 minutes each time, three times. A dual-color infrared laser imaging system (Licor catalog number Odyssey CLX) was used for Western membrane imaging. The Image Studio software was used to analyze the grayscale of the bands. GAPDH protein bands were also detected for each sample as an internal reference. The AR protein degradation rate of the compound and the positive control sample was calculated based on the grayscale of the protein bands. Among them, "A" means degradation rate ≥ 50%, "B" means 50%> degradation rate ≥ 20%, "C" means 20% degradation rate ≥ 10%, and "D" means degradation rate less than 10%.
(In general: In western blotting, separated proteins are transferred to a membrane and probed.)

The subject of a further experiment is LNCAP cell. As to the kind of experiment: LNCaP cell proliferation inhibition (WST-8). To be noted: Homo sapiens, LNCaP FGC cells, 96 hours, read-out: IC50 for inhibiting LNCAP cell proliferation. On the procedure:
LNCaP FGC cells (ATCC, CLR-1740) were cultured in RPMI 1640 (ATCC, 30-2001) complete medium supplemented with 10% fetal bovine serum (Hyclone, SH30406.05). On the first day of the experiment, LNCaP FGC cells were seeded at a density of 5,000 cells/well in 96-well plates using RPMI 1640 medium supplemented with 10% fetal bovine serum, with 100 µL of cell suspension per well. The cells were cultured overnight in a 37°C, 5% CO2 cell incubator. On the second day, 100 µL of different concentrations of the compound to be tested and the positive control sample ARV-766 (source: Energy Chemical) prepared in culture medium were added to each well. The final concentration of the compound was 9 concentration points of 5-fold serial dilution starting from 10 µM. The wells to which 100 µL of RPMI 1640 culture medium containing 10% fetal bovine serum was added were set as controls. The cells were cultured in a cell culture incubator at 37°C and 5% CO2 for 96 hours. On the sixth day, the 96-well cell culture plate was removed, and 1/10 volume of WST-8 (Beytime, C0040) reagent was added to each well. The absorbance at 450 nm was detected using a microplate reader (TECAN, F50).
For orientation: Tetrazolium assays rely on reduction of a dye to a coloured formazan, in cell work by metabolically active cells.

For another experiment, the system named is VCaP cell. Description: VCaP cell proliferation inhibition (WST-8). The note with it: Homo sapiens, VCaP cells, 168 hours, read-out: IC50 for inhibiting VCAP cell proliferation. On the procedure:
VCaP cells (ATCC, CRL-2876) were cultured in DMEM (Gibco, 11995-065) complete medium containing 10% fetal bovine serum (Hyclone, SH30406.05). On the first day of the experiment, VCaP cells were seeded at a density of 15,000 cells/well in a 96-well plate using DMEM medium containing 10% fetal bovine serum, with 100 µL of cell suspension per well, and cultured overnight in a cell culture incubator at 37°C and 5% CO2. […] The final concentration of the compound was 9 concentration points of 5-fold serial dilution starting from 10 µM. The wells to which 100 µL of DMEM medium containing 10% fetal bovine serum was added were set as blank controls and cultured in a cell culture incubator at 37°C and 5% CO2 for 168 hours. On the ninth day, the 96-well cell culture plate was removed and 1/10 volume of WST-8 (Beytime, C0040) reagent was added to each well. The absorbance at 450 nm was measured using a microplate reader (TECAN, F50).

The next experiment has as its system T-47D cells. As to the kind of experiment: T-47D cell proliferation inhibition (CCK-8). To be noted: Homo sapiens, T47D, 144 h, 6 days. On the procedure:
The complete culture medium required for breast ductal carcinoma T-47D cells is 1640 (ATCC, Product number: A10491-01) basal medium containing 10% fetal bovine serum. T-47D cells were seeded in 96-well plates at a density of 3,000/well, and different concentrations of PROTAC compounds 1-55 provided in the embodiments of the present invention and the positive control sample ARV-471 (source: Inokai) were prepared to treat the cells and incubated at 37°C, 5% CO2 in a cell culture incubator for 6 days. According to the manufacturer's instructions, the CCK-8 kit (Beyotime, Product number: C0040) was used to detect cell viability. The IC50 of each compound for 6 days was calculated using GraphPadPrism software based on the inhibition rate. Table 6: IC50 value for the inhibition of T-47D cell proliferation by PROTAC compounds and positive control sample

The test system of the next experiment is MCF-7 cells. Description: MCF-7 cell proliferation inhibition (CCK-8). To be noted: Homo sapiens, MCF7, 144 h, 6 days. On the procedure:
The complete culture medium required for breast cancer MCF-7 cells (source ATCC) is DMEM (gibco, Product number: 11995-065) basal medium containing 10% fetal bovine serum. MCF-7 cells were seeded in 96-well plates at a density of 800 cells/well, and different concentrations of PROTAC compounds 1-55 provided in the embodiments of the present invention and the positive control sample ARV-471 (source: Inokai) were prepared to treat cells. The cells were incubated at 37 °C and 5% CO2 in a cell culture incubator for 6 days. Cell viability was detected using a CCK-8 kit (Beyotime, Product number: C0040) according to the manufacturer's instructions. The IC50 value of each PROTAC compound for 6 days was calculated using GraphPad Prism software based on the inhibition rate. Table 7: IC50 value for the inhibition of MCF-7 cell proliferation by PROTAC compounds of the present disclosure and positive control sample

The structures appear in SMILES notation.

T1 sequence (P10275 whole entry T878A): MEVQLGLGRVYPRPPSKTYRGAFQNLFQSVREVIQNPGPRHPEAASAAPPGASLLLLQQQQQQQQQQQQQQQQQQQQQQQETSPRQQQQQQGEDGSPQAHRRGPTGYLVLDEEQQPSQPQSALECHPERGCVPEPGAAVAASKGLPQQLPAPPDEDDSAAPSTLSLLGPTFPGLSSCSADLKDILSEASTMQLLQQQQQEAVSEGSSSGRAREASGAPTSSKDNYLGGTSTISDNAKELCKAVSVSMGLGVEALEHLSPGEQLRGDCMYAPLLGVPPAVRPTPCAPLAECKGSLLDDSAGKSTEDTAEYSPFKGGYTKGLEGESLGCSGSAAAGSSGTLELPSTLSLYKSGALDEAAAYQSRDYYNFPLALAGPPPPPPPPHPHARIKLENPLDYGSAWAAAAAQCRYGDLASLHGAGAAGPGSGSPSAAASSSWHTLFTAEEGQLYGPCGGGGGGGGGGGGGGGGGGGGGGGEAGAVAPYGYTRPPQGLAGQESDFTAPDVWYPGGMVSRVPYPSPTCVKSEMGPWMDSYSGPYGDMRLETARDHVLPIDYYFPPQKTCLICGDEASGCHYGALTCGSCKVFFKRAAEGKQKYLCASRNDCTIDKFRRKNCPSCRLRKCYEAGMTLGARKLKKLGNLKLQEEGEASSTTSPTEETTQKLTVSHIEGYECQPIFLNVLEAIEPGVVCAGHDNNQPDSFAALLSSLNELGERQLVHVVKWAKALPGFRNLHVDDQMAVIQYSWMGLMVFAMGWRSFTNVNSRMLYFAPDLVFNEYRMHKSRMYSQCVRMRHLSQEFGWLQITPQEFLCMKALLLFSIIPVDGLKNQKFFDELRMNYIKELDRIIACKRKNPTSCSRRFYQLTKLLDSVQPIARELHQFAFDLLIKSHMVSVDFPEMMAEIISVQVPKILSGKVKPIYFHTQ
T1 sequence (Q96SW2 whole entry partner): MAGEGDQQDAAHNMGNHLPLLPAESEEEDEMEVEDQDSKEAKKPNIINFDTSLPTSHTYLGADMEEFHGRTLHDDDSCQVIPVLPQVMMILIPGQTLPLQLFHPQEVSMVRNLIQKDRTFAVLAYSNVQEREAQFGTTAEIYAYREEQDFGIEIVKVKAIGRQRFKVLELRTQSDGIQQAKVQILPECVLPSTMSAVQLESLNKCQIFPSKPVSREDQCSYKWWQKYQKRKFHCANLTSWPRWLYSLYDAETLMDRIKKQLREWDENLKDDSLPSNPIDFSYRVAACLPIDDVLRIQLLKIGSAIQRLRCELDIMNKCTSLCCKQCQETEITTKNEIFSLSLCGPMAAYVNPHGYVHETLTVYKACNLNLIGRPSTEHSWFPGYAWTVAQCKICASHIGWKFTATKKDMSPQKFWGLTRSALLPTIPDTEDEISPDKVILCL

Take `COc1cc(N2CC3(CCN(c4ccc(C(=O)N5CCC(CN6CCC7(CCc8ccc(N9CCC(=O)NC9=O)cc8O7)CC6)CC5)cc4)CC3)C[C@@H]2C)ccc1C#N` [A-P-83, (S)-4-(8-(4-(4-((7-(2,4-dioxotetrahydropyrimidin-1(2H)-yl)spiro[chroman-2,4'-piperidine]-1'-yl)methyl)piperidine-1-carbonyl)phenyl)-3-methyl-2,8-diazaspiro[4.5]dec-2-yl)-2-methoxybenzonitrile]: the “Degradation rate of AR protein in LNCAP cells” value at AR protein (10 nM) and on AR protein (100 nM) was “A (degradation rate ≥ 50%)” throughout. Also, the IC50 in the experiment with LNCAP cell is 550 nM; in the experiment with VCaP cell it was under 0.026 nM.

In the case of `O=C1CC[C@H](N2Cc3cc(N4CCN(CC5CCN(c6ccc([C@@H]7c8ccc(O)cc8CC[C@@H]7c7ccccc7)cc6)CC5)CC4)ccc3C2=O)C(=O)N1` [ARV-471, reference compound], the IC50 in the experiment on T-47D cells worked out at 2.69 nM; with MCF-7 cells, 113 nM.

Regarding `O=C1CCN(c2ccc3c(c2)OCC32CCN(C[C@H]3CC[C@@H](OC4CCN(c5ccc([C@@H]6c7ccc(O)cc7CC[C@@H]6c6ccccc6)cc5)CC4)CC3)CC2)C(=O)N1` [ER-P-4, 1-(1'-(((1S,4S)-4-((1-(4-((1R,2S)-6-hydroxy-2-phenyl-1,2,3,4-tetrahydronaphthalen-1-yl)phenyl)piperidin-4-yl)oxy)cyclohexyl)methyl)-2H-spiro [benzofuran-3,4'-piperidine]-6-yl)dihydropyrimidine-2,4(1H,3H)-dione], the values for the IC50 in the experiment with T-47D cells and in the experiment with MCF-7 cells were 52.5 nM and 944 nM, respectively.

For `O=C1CCC(c2ccc3c(c2)OC2(CC3)CCN(C[C@H]3CC[C@@H](OC4CCN(c5ccc([C@@H]6c7ccc(O)cc7CC[C@@H]6c6ccccc6)cc5)CC4)CC3)CC2)C(=O)N1` (stereo partly drawn) [ER-P-5, 3-(1'-(((1S,4S)-4-((1-(4-((1R,2S)-6-hydroxy-2-phenyl-1,2,3,4-tetrahydronaphthyl-1-yl)phenyl)piperidin-4-yl)oxy)cyclohexyl)methyl)spiro[chroman-2,4'-piperidine]-7-yl)piperidine-2,6-dione], in the experiment on MCF-7 cells, the IC50 was 873 nM.

Consider `O=C1CCN(c2ccc3c(c2)CC2(CCN(C[C@H]4CC[C@@H](OC5CCN(c6ccc([C@@H]7c8ccc(O)cc8CC[C@@H]7c7ccccc7)cc6)CC5)CC4)CC2)CO3)C(=O)N1` [ER-P-6, 1-(1'-(((1S,4S)-4-((1-(4-((1R,2S)-6-hydroxy-2-phenyl-1,2,3,4-tetrahydronaphthalen-1-yl)phenyl)piperidin-4-yl)oxy)cyclohexyl)methyl)spiro[benzo-dihydro-3,4'-piperidin]-6-yl)dihydropyrimidine-2,4(1H,3H)-dione], for which the figures for the IC50 with T-47D cells and in the experiment with MCF-7 cells were 367 nM and 847 nM, respectively.
